Like-named read-outs stand apart in the source and are kept apart here.
Key:
HS 578 T = test: NCI 60-cell line one dose antiproliferative assay; type: cell-based; details: Homo sapiens, Breast Cancer, 10 µM one dose, read-out: Percent inhibition (cell growth inhibition %)
Source text: (§1) The National Cancer Institute "NCI", NIH, Bethesda, Maryland, USA (www.dtp.nci.nih.gov) chose six of the final compounds for the Developmental Therapeutic Program (DTP), codes (5a, 5b, 5c, 5d, 6a, 6b). The NCI screening service will favor compounds with drug-like modes of action based on computer-aided design. Selection The criterion for screening is the possibility of the submitted compounds to provide diversity to the NCI small molecule chemical collection. This screen employs 60 different Leukemia, melanoma, and additional tumor cell lines of the human from brain, kidney, lung, ovary, colon, breast, and prostate cancers. All compounds were picked based on their NCI codes. NSC: D-820696/1, NSC: D-820697/1, NSC: D-820698/1, NSC: D-820699/1, NSC: D-820700/1, NSC: D-820701/1. The initial 10 µM one dose percent inhibition assay was performed on the entire NCI 60 cell panel to examine the different chemotypes of this work. The results are presented as a percentage of cell growth on each of the 60 NCI cell line panels for each of the investigated substances in Table 2.
(§2) The NCI cancer screening procedure includes a comparison of all substances to the sixty NCI cell line panel representing leukemia, NSCLC, cell lines from breast cancer, prostate cancer, melanoma, CNS cancer, renal cancer, ovarian cancer, and colon cancer at a single point of 10 uM. The results of the single-dose screen can be presented using a mean graph.

LOX IMVI = test: NCI 60-cell line one dose antiproliferative assay; type: cell-based; details: Homo sapiens, Melanoma, 10 µM one dose, read-out: Percent inhibition (cell growth inhibition %)
Source text: as §1, §2

A498 = test: NCI 60-cell line one dose antiproliferative assay; type: cell-based; details: Homo sapiens; A498, Renal Cancer, 10 µM one dose; read-out: Percent inhibition (cell growth inhibition %)
Source text: as §1, §2

SNB-75 = test: NCI 60-cell line one dose antiproliferative assay; type: cell-based; details: Homo sapiens; SNB-75, CNS Cancer, 10 µM one dose; read-out: Percent inhibition (cell growth inhibition %)
Source text: as §1, §2

MDA-MB-231/ATCC = test: NCI 60-cell line one dose antiproliferative assay; type: cell-based; details: Homo sapiens, Breast Cancer, 10 µM one dose, read-out: Percent inhibition (cell growth inhibition %)
Source text: as §1, §2

U251 = test: NCI 60-cell line one dose antiproliferative assay; type: cell-based; details: Homo sapiens, U-251; U251, CNS Cancer, 10 µM one dose; read-out: Percent inhibition (cell growth inhibition %)
Source text: as §1, §2

M14 = test: NCI 60-cell line one dose antiproliferative assay; type: cell-based; details: Homo sapiens; M14, Melanoma, 10 µM one dose; read-out: Percent inhibition (cell growth inhibition %)
Source text: as §1, §2

EKVX = test: NCI 60-cell line one dose antiproliferative assay; type: cell-based; details: Homo sapiens, Non-Small Cell Lung Cancer, 10 µM one dose, read-out: Percent inhibition (cell growth inhibition %)
Source text: as §1, §2

K-562 = test: NCI 60-cell line one dose antiproliferative assay; type: cell-based; details: Homo sapiens, K562; K-562, Leukemia, 10 µM one dose; read-out: Percent inhibition (cell growth inhibition %)
Source text: as §1, §2

NCI-H226 = test: NCI 60-cell line one dose antiproliferative assay; type: cell-based; details: Homo sapiens; NCI-H226, Non-Small Cell Lung Cancer, 10 µM one dose; read-out: Percent inhibition (cell growth inhibition %)
Source text: as §1, §2

CAKI-1 = test: NCI 60-cell line one dose antiproliferative assay; type: cell-based; details: Homo sapiens; CAKI-1, Renal Cancer, 10 µM one dose; read-out: Percent inhibition (cell growth inhibition %)
Source text: as §1, §2

RPMI-8226 = test: NCI 60-cell line one dose antiproliferative assay; type: cell-based; details: Homo sapiens; RPMI-8226, Leukemia, 10 µM one dose; read-out: Percent inhibition (cell growth inhibition %)
Source text: as §1, §2

RXF 393 = test: NCI 60-cell line one dose antiproliferative assay; type: cell-based; details: Homo sapiens; RXF 393, Renal Cancer, 10 µM one dose; read-out: Percent inhibition (cell growth inhibition %)
Source text: as §1, §2

MALME-3 M = test: NCI 60-cell line one dose antiproliferative assay; type: cell-based; details: Homo sapiens, Melanoma, 10 µM one dose, read-out: Percent inhibition (cell growth inhibition %)
Source text: as §1, §2

OVCAR-5 = test: NCI 60-cell line one dose antiproliferative assay; type: cell-based; details: Homo sapiens; OVCAR-5, Ovarian Cancer, 10 µM one dose; read-out: Percent inhibition (cell growth inhibition %)
Source text: as §1, §2

T-47D = test: NCI 60-cell line one dose antiproliferative assay; type: cell-based; details: Homo sapiens, T47D, Breast Cancer, 10 µM one dose, read-out: Percent inhibition (cell growth inhibition %)
Source text: as §1, §2

UO-31 = test: NCI 60-cell line one dose antiproliferative assay; type: cell-based; details: Homo sapiens; UO-31, Renal Cancer, 10 µM one dose; read-out: Percent inhibition (cell growth inhibition %)
Source text: as §1, §2

NCI-H322M = test: NCI 60-cell line one dose antiproliferative assay; type: cell-based; details: Homo sapiens, Non-Small Cell Lung Cancer, 10 µM one dose, read-out: Percent inhibition (cell growth inhibition %)
Source text: as §1, §2

UACC-62 = test: NCI 60-cell line one dose antiproliferative assay; type: cell-based; details: Homo sapiens; UACC-62, Melanoma, 10 µM one dose; read-out: Percent inhibition (cell growth inhibition %)
Source text: as §1, §2

HOP-92 = test: NCI 60-cell line one dose antiproliferative assay; type: cell-based; details: Homo sapiens; HOP-92, Non-Small Cell Lung Cancer, 10 µM one dose; read-out: Percent inhibition (cell growth inhibition %)
Source text: as §1, §2

SNB-19 = test: NCI 60-cell line one dose antiproliferative assay; type: cell-based; details: Homo sapiens; SNB-19, CNS Cancer, 10 µM one dose; read-out: Percent inhibition (cell growth inhibition %)
Source text: as §1, §2

SR = test: NCI 60-cell line one dose antiproliferative assay; type: cell-based; details: Homo sapiens, Leukemia, 10 µM one dose, read-out: Percent inhibition (cell growth inhibition %)
Source text: as §1, §2

IGROV1 = test: NCI 60-cell line one dose antiproliferative assay; type: cell-based; details: Homo sapiens, IGROV-1; IGROV1, Ovarian Cancer, 10 µM one dose; read-out: Percent inhibition (cell growth inhibition %)
Source text: as §1, §2

PC-3 = test: NCI 60-cell line one dose antiproliferative assay; type: cell-based; details: Homo sapiens; PC-3, Prostate Cancer, 10 µM one dose; read-out: Percent inhibition (cell growth inhibition %)
Source text: as §1, §2

SF-268 = test: NCI 60-cell line one dose antiproliferative assay; type: cell-based; details: Homo sapiens; SF-268, CNS Cancer, 10 µM one dose; read-out: Percent inhibition (cell growth inhibition %)
Source text: as §1, §2

786–0 = test: NCI 60-cell line one dose antiproliferative assay; type: cell-based; details: Homo sapiens; 786–0, Renal Cancer, 10 µM one dose; read-out: Percent inhibition (cell growth inhibition %)
Source text: as §1, §2

MCF7 = test: NCI 60-cell line one dose antiproliferative assay; type: cell-based; details: Homo sapiens; MCF7, Breast Cancer, 10 µM one dose; read-out: Percent inhibition (cell growth inhibition %)
Source text: as §1, §2

SN12C = test: NCI 60-cell line one dose antiproliferative assay; type: cell-based; details: Homo sapiens, Renal Cancer, 10 µM one dose, read-out: Percent inhibition (cell growth inhibition %)
Source text: as §1, §2

A549/ ATCC = test: NCI 60-cell line one dose antiproliferative assay; type: cell-based; details: Homo sapiens, Non-Small Cell Lung Cancer, 10 µM one dose, read-out: Percent inhibition (cell growth inhibition %)
Source text: as §1, §2

GSK-3β [1] = target: T1, GSK-3β (Homo sapiens, UniProt P49841); test: GSK-3β kinase inhibition, Z'-LYTE FRET assay (Thermo Fisher SelectScreen); type: biochemical; details: for inhibition at 100 µM: 100 μM single dose
T1 sequence (P49841 whole entry): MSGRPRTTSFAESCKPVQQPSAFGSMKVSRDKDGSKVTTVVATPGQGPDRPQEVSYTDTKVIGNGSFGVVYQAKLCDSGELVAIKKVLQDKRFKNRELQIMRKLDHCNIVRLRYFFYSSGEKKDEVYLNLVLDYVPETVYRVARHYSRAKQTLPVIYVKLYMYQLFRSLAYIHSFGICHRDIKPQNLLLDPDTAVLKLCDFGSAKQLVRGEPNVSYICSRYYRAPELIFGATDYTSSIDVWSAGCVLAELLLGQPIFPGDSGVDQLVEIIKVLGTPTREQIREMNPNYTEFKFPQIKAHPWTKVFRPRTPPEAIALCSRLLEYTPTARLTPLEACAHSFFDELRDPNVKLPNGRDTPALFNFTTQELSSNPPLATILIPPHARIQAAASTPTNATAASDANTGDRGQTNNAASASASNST

SF-295 = test: NCI 60-cell line one dose antiproliferative assay; type: cell-based; details: Homo sapiens; SF-295, CNS Cancer, 10 µM one dose; read-out: Percent inhibition (cell growth inhibition %)
Source text: as §1, §2

NCI-H522 = test: NCI 60-cell line one dose antiproliferative assay; type: cell-based; details: Homo sapiens; NCI-H522, Non-Small Cell Lung Cancer, 10 µM one dose; read-out: Percent inhibition (cell growth inhibition %)
Source text: as §1, §2

HCT-116 = test: NCI 60-cell line one dose antiproliferative assay; type: cell-based; details: Homo sapiens; HCT-116, Colon Cancer, 10 µM one dose; read-out: Percent inhibition (cell growth inhibition %)
Source text: as §1, §2

HCT-15 = test: NCI 60-cell line one dose antiproliferative assay; type: cell-based; details: Homo sapiens; HCT-15, Colon Cancer, 10 µM one dose; read-out: Percent inhibition (cell growth inhibition %)
Source text: as §1, §2

SF-539 = test: NCI 60-cell line one dose antiproliferative assay; type: cell-based; details: Homo sapiens; SF-539, CNS Cancer, 10 µM one dose; read-out: Percent inhibition (cell growth inhibition %)
Source text: as §1, §2

NCI-H23 = test: NCI 60-cell line one dose antiproliferative assay; type: cell-based; details: Homo sapiens; NCI-H23, Non-Small Cell Lung Cancer, 10 µM one dose; read-out: Percent inhibition (cell growth inhibition %)
Source text: as §1, §2

GSK-3β [2] = target: T1, GSK-3β; details: cited from earlier work

| Structure (SMILES) | inhibition at 10 µM (LOX IMVI) [%] | inhibition at 10 µM (A498) [%] | inhibition at 10 µM (SNB-75) [%] | inhibition at 10 µM (MDA-MB-231/ATCC) [%] | inhibition at 10 µM (U251) [%] | inhibition at 10 µM (M14) [%] | inhibition at 10 µM (K-562) [%] | inhibition at 10 µM (CAKI-1) [%] | inhibition at 10 µM (RPMI-8226) [%] | inhibition at 10 µM (OVCAR-5) [%] | inhibition at 10 µM (T-47D) [%] | inhibition at 10 µM (UO-31) [%] | inhibition at 10 µM (NCI-H322M) [%] | inhibition at 10 µM (UACC-62) [%] | inhibition at 10 µM (SNB-19) [%] | inhibition at 10 µM (PC-3) [%] | inhibition at 10 µM (786–0) [%] | inhibition at 10 µM (MCF7) [%] | inhibition at 10 µM (SN12C) [%] | melting point [°C] | other results |
| --- | --- | --- | --- | --- | --- | --- | --- | --- | --- | --- | --- | --- | --- | --- | --- | --- | --- | --- | --- | --- | --- |
| O=C(COc1ncnc2sc3c(c12)CCCC3)NN=Cc1ccc(Cl)cc1 [5b, N'-(4-Chlorobenzylidene)-2-((5,6,7,8-tetrahydrobenzo [4,5]thieno[2,3-d]pyrimidin-4-yl)oxy) acetohydrazide] | 7.09 | 11.1 | 18.4 | 7.6 | 15.9 | 2 | 0.32 | 4.53 | 2.71 | 8.96 | 6.96 | 23.1 | 0.39 | 4.84 | 9.77 | 3.8 | 2.11 | 11.7 | 2.55 | 275 to 276 | inhibition at 10 µM (HS 578 T): 7.62%; inhibition at 10 µM (EKVX): 3.11%; inhibition at 10 µM (NCI-H226): 2.81%; inhibition at 10 µM (RXF 393): 4.13%; inhibition at 10 µM (MALME-3 M): 6.05%; inhibition at 10 µM (HOP-92): 0.71%; inhibition at 10 µM (SR): 1.63%; inhibition at 10 µM (IGROV1): 11%; inhibition at 10 µM (SF-268): 4.27%; inhibition at 10 µM (A549/ ATCC): 4.36%; inhibition at 10 µM (GSK-3β [1]; 10 μM): 3%; inhibition at 100 µM (GSK-3β [1]): 17% |
| O=C(COc1ncnc2sc3c(c12)CCCC3)NNC(=S)Nc1ccccc1 [6a] | 1.31 | 47 | 14.6 | 3.71 | 3.33 | 0.96 | 7.06 | 1.14 | 3.86 | 3.88 | 6.64 | 14.8 | 0.95 | 7.2 | 5.27 | 3.65 | 1.23 | 12.3 | 3.79 | 270 to 272 | inhibition at 10 µM (SF-295): 2.64%; inhibition at 10 µM (NCI-H522): 5.09%; inhibition at 10 µM (HCT-116): 1.5%; inhibition at 10 µM (HCT-15): 0.17%; inhibition at 10 µM (SF-539): 2.42%; inhibition at 10 µM (NCI-H23): 3.1%; inhibition at 100 µM (GSK-3β [1]): 82%; IC50 (GSK-3β [1]; five doses 10 nM–100 µM): 17.3 µM |
| COc1ccc(-c2cc3c(NC(=O)c4cccc(F)c4)ncnc3o2)cc1 [II] |  |  |  |  |  |  |  |  |  |  |  |  |  |  |  |  |  |  |  |  | IC50 (GSK-3β [2]): > 35 µM |
